The values below come from PMC7051184, “C9orf72 arginine-rich dipeptide repeat proteins disrupt karyopherin-mediated nuclear import” (eLife, 2020).

Assay [1] deals with importin β. Nature of the assay: Biochemical pulldown (GFP-Trap) for DPR-induced Rango-importin β dissociation. The settings on record: increasing concentrations of DPRs. The assay is classed as binding, human. The method, then:
GFP-Trap magnetic beads (Chromotek, Planegg-Martinsried, Germany) were washed and resuspended in TTBS. At the end of incubation, 8 µl bead suspension was added to each sample and mixed by rotation for 15 min. The supernatant was removed and beads washed 3 times with TTBS before boiling in 20 µl SDS-PAGE sample buffer with 2% β-mercaptoethanol. Samples were separated by SDS-PAGE and anti-GFP western blot performed as detailed below to detect Rango. After detecting the ECL signal, membranes were stained with Coomassie Brilliant R250 to detect importin β. Background-subtracted signals were determined by Image Lab 6.01 (BioRad) and the Rango ECL signal normalized to the importin β signal within each lane.
(§1) Supernatant and pellet fractions (for all 5 DPRs, and control/buffer only) were prepared as in the nuclear transport assays, by adding 100 µM 10mers to 2.5 mg/ml HEK lysate in 100 µL TRB. Supernatants were boiled in Laemmli (BioRad) for 5 min. Pellets were boiled for 15 min followed by sonication in order to fully disperse aggregates for SDS-PAGE. Equal volumes of supernatant and pellet fractions were run on 4–12% Bolt Bis-Tris Plus gels (ThermoFisher), transferred to nitrocellulose membrane using an iBlot2 dry blotting system (ThermoFisher). Protein loading was analyzed by BLOT-Faststain (G-biosciences, St. Louis, MO), according to the manufacterers’ instructions. For immunodetection, membranes were blocked with 5% non-fat milk in TBST and probed by sequential incubation with the primary antibodies as detailed in the table below. Detection was by HRP-conjugated secondary antibodies/chemiluminescence using an ImageQuant LAS 4000 system (GE, Chicago, IL). To permit sequential probing of membranes without stripping, signals were quenched by incubation with prewarmed 30% H20_2 for 20 min ([Sennepin et al., 2009]). Band intensities were measured by ImageQuant software. For pellet vs. supernatant fractions, all were expressed as percent untreated control. For blots in Figure 1E, samples were run on 4–20% SDS PAGE minigels (ThermoFisher) and blotted to PVDF membranes (Immun-Blot PVDF, Bio-Rad) using the Bio-Rad TransBlot Turbo apparatus, and probed as above. The chemiluminescence signal was captured with a Bio-Rad ChemiDoc XRS+ digital imaging system.

For assay [2], the target named is importin β-mediated nuclear import of Rango (Homo sapiens, UniProt Q14974). Nature of the assay: Permeabilized cell nuclear import assay, Rango, mouse primary cortical neurons. The assay is classed as cell-based. The settings on record: for Effect on Rango import at steady state: 100 µM, fixed at 2 hr; for Effect on Rango import, time-lapse imaging: 30 min, up to 100 µM. From the text:
All animal procedures were approved by the Johns Hopkins Animal Care and Use Committee. Timed pregnant C57BL/6J females (Jackson Laboratory, Bar Harbor, ME) were sacrificed by cervical dislocation at E16, cortex dissociated, and cells plated at 50,000/well on poly-D-lysine/laminin-coated, optical glass-bottom 96-well plates. Growth medium consisted of Neurobasal supplemented with B27, Glutamax, and penicillin/streptomycin (Gibco/ThermoFisher). At 5–7 days in vitro, neurons were rinsed in prewarmed PBS and permeabilized for 4 min. at 37° in a hypotonic solution containing […] Tris-HCl pH 7.5 (to cause osmotic swelling) and 50–150 mg/ml BSA (for molecular crowding/mechanical support). Following permeabilization, cells were placed on ice and rinsed 2 × 5 min in transport buffer (TRB, 20 mM HEPES, 110 mM KOAc, 2 mM Mg(OAc)2, 5 mM NaOAc, 0.5 mM EGTA, 250 mM sucrose, pH 7.3, with protease inhibitor cocktail). All rinse and assay buffers were supplemented with 50 mg/mL BSA. The optimal hypotonic buffer and BSA concentration varied by batch, and was optimized prior to each set of assays for ability to permeabilize the majority of plasma membranes while maintaining nuclear exclusion of a 70 kD fluorescent dextran (ThermoFisher).
Concentrated whole cell lysates were prepared from HEK293T cells (ATCC, mycoplasma negative and validated by STR profiling), grown in 150 mm dishes and sonicated on ice in 1X TRB in the presence of protease inhibitor cocktail (Roche). The lysates were clarified (15 min, 14000 g, 4C), snap frozen in liquid nitrogen, and stored in single use aliquots at −80C. Total HEK cell RNA was extracted using miRNEasy kits according to the manufacturers’ protocol, with DNase digestion (Qiagen). RNA concentration was measured by Nanodrop (ThermoFisher), and all 260/280 ratios were verified to be > 2.0. Energy regeneration (ER) mix consisted of 100 µM ATP, 100 µM GTP, 4 mM creatine phosphate, and 20 U/mL creatine kinase (Roche).
Reaction mixes consisting of 2.5 mg/ml lysate, ER, fluorescent cargo (200 nM Rango and YFP-M9-CFP, 500 nM GST-GFP-NLS), Hoechst, DPRs, RNA, or inhibitors (100 µM importazole (IPZ, Millipore Sigma); 0.8 mg/mL wheat germ agglutinin (WGA, Millipore Sigma) were assembled on ice during cell permeabilization. DPRs or inhibitors were allowed to equilibrate in cell lysate for at least 30 min prior to initiation of transport. Every plate included: (1) Cargo alone: fluorescent cargo, but no ER or lysate, (2) Untreated controls: fluorescent cargo, ER, and lysate, and (3) Inhibitor: fluorescent cargo, ER, lysate, and IPZ (Rango and GST-GFP-NLS reactions) or WGA (YFP-M9-CFP). Preassembled transport reactions were then transferred onto permeabilized cells via multichannel pipette, and allowed to proceed at room temperature for 2 hr (Rango, YFP-M9-CFP) or 4 hr (GST-GFP-NLS). Cells were fixed in 4% paraformaldehyde/PBS, rinsed 2x with PBS, and transferred to 50% glycerol/PBS for immediate imaging.
For a subset of neuron transport assays, transport was monitored live via time lapse imaging every 5 min for 30 min. In a subset of HeLa assays, transport reactions were centrifuged before use at 14,000g × 15 min to separate soluble and insoluble fractions. In another variation, the transport lysate + DPR and ER mix was allowed to preincubate on the permeabilized HeLa cells for 1 hour prior to initiation of transport, rinsed 1x with TRB, and transport initiated with fresh lysate, cargo, and ER.
Multiple non-overlapping fields per well (4 for time-lapse imaging, 9-16 for fixed imaging), were captured at 40x on an ImageXpress Micro XLS high-content microscope (Molecular Devices, San Jose, CA), and the ratio of nuclear to cytoplasmic fluorescence intensity was calculated using the MetaXpress automated translocation-enhanced module. Raw data were filtered to exclude autofluorescence and the mean N/C ratio from wells without ER or cell lysate was subtracted from all values.

Assay [3] addresses passive nuclear influx of 40 kD dextran. Nature of the assay: Passive import assay, 40 kD dextran, permeabilized HeLa. The assay is classed as cell-based, human. The settings on record: preincubation 30–60 min, with energy and lysate; imaged 5 min.
Assay [4] relates to transportin-1 (Tnpo1). As to the kind of experiment: DPR aggregation assay and western blot, Tnpo1.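 For TNPO1 band density, % untr control: RNA rows contain added 20 µg total HEK RNA while no-RNA rows lack it.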 The settings on record: for Tnpo1 band density, Pellet / Tnpo1 band density, Supernatant: 100 µM 10mer in 2.5 mg/ml HEK lysate, normalized to untreated HEK; for TNPO1 band density, % untr control: Fig 5-suppl 3C, normalized to untreated HEK on same membrane. The assay is classed as biochemical, human. The method, then:
as §1
For orientation: A western blot detects proteins with antibodies after separation by electrophoresis.

Where [5] appears, read: Pellet, no RNA (Untreated), blot 1.
[6] abbreviates: Pellet, no RNA (Untreated), blot 2.
[7] abbreviates: Supernatant, no RNA (Untreated), blot 1.
The mark [8] stands for this setting: Supernatant, no RNA (Untreated), blot 2.

Where a SMILES comes first, the peptide text is derived from it.

importin β-mediated nuclear import of Rango, sequence (Q14974 whole entry): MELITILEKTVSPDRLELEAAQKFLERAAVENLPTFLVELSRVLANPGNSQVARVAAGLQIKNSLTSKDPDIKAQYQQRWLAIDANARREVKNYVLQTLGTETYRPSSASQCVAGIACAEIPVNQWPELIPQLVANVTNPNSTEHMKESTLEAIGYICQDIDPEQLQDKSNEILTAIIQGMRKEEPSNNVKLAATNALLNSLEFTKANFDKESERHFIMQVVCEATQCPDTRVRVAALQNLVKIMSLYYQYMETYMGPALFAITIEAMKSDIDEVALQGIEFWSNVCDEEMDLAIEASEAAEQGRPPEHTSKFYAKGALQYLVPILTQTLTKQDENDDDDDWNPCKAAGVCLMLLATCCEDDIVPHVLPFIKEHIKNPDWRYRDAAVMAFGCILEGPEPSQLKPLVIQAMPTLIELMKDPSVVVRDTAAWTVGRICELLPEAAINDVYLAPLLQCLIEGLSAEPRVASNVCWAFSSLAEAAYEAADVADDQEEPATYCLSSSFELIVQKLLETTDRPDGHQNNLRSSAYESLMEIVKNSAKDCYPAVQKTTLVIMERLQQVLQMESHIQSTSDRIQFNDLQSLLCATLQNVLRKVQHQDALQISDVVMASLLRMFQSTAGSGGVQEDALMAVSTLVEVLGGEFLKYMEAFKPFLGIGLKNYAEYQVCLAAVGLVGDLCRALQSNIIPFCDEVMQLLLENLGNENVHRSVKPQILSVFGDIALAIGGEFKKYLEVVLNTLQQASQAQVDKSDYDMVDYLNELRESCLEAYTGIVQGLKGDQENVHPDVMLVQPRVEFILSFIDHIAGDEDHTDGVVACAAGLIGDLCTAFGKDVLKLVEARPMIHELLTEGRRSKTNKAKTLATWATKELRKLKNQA

Take “GPGPGPGPGPGPGPGPGPGPKC [GP10, Synthetic 10-mer GP dipeptide repeat with C-terminal lysine and cysteine]”: the “Displacement of importin β from Rango (GFP nanobody bead co-immunoprecipitation)” value (“Displacement of importin β from Rango” for short) in assay [1] is listed as “little if any effect”. For the same molecule, in assay [2], the “Effect on Rango import at steady state” value was “no effect” and the “Effect on Rango import, time-lapse imaging” value (“Effect … time-lapse imaging” below) is reported as “no effect”. For the same molecule, the “Effect on passive nuclear influx of 40-kD dextran” value (“Effect on passive nuclear influx” for short) in assay [3] is reported as “not observed”.
For the molecule `N=C(N)NCCC[C@H](NC(=O)[C@@H]1CCCN1C(=O)[C@H](CCCNC(=N)N)NC(=O)[C@@H]1CCCN1C(=O)[C@H](CCCNC(=N)N)NC(=O)[C@@H]1CCCN1C(=O)[C@H](CCCNC(=N)N)NC(=O)[C@@H]1CCCN1C(=O)[C@H](CCCNC(=N)N)NC(=O)[C@@H]1CCCN1C(=O)[C@H](CCCNC(=N)N)NC(=O)[C@@H]1CCCN1C(=O)[C@H](CCCNC(=N)N)NC(=O)[C@@H]1CCCN1C(=O)[C@H](CCCNC(=N)N)NC(=O)[C@@H]1CCCN1C(=O)[C@H](CCCNC(=N)N)NC(=O)[C@@H]1CCCN1C(=O)[C@H](CCCNC(=N)N)NC(=O)[C@@H]1CCCN1)C(=O)O` [PR10] (H-PRPRPRPRPRPRPRPRPRPR-OH; N-terminus and C-terminus assumed), the “Displacement of importin β from Rango” value in assay [1] was “dose-dependent displacement of importin β from the sensor”. For the same molecule, the “Effect … time-lapse imaging” value in assay [2] is “dose-dependent inhibition of transport”. Also, the “Tnpo1 band density, Pellet” value was 258.1 % control in assay [4] (Blot 1) and 476.3 % control in assay [4] (Blot 2). In addition, the results for the “Tnpo1 band density, Supernatant” value in assay [4] (Blot 1) and in assay [4] (Blot 2) were 76.9 % control and 65.0 % control, respectively. Besides, the “TNPO1 band density, % untr control” value in assay [4] (Pellet, RNA, blot 1) worked out at 162.49%; in assay [4] (Pellet, RNA, blot 2) it was 169.58%; in assay [4] (setting [5]) it was 284.53%; in assay [4] (setting [6]) it was 326.13%; in assay [4] (Supernatant, RNA, blot 1), 75.09%; in assay [4] (Supernatant, RNA, blot 2), 93.47%. Further, the “TNPO1 band density, % untr control” value in assay [4] (setting [7]) is on record as 65.77%; in assay [4] (setting [8]) it was 83.87%.
“PA10: Synthetic 10-mer PA dipeptide repeat with C-terminal lysine and cysteine (PAPAPAPAPAPAPAPAPAPAKC)”: the “Displacement of importin β from Rango” value in assay [1] is “little if any effect”. Also, in assay [2], the “Effect on Rango import at steady state” value is reported as “only trace inhibition” and the “Effect … time-lapse imaging” value is “no effect”. In assay [3], the “Effect on passive nuclear influx” value is “not observed”.
In the case of “GA10: Synthetic 10-mer GA dipeptide repeat with C-terminal lysine and cysteine (GAGAGAGAGAGAGAGAGAGAKC)”, the “Displacement of importin β from Rango” value in assay [1] was “little if any effect”. Besides, the “Effect on Rango import at steady state” value in assay [2] is recorded as “only trace inhibition”. In addition, the “Effect … time-lapse imaging” value in assay [2] is “no effect”. The “NCT inhibition in permeabilized neurons” value in assay [2] (high concentrations) is listed as “only minimal inhibition at high concentrations”. The “Effect on passive nuclear influx” value in assay [3] was “not observed”. The “TNPO1 band density, % untr control” value in assay [4] (Pellet, RNA, blot 1) is 84.30%; in assay [4] (Pellet, RNA, blot 2), 68.79%; in assay [4] (setting [5]), 107.97%; in assay [4] (setting [6]) it was 107.46%; in assay [4] (Supernatant, RNA, blot 1) it was 64.64%; in assay [4] (Supernatant, RNA, blot 2), 100.29%. Further, the entries for the “TNPO1 band density, % untr control” value in assay [4] (setting [7]) and in assay [4] (setting [8]) were 66.29% and 92.01%, respectively.
